# In the OPERA property sets (Mansouri et al. 2018):
# Where a SMILES comes first, the peptide text is derived from it. [ ]: non-standard residue; d: D form. ξ: configuration not given here. ξW = NC(Cc1c[nH]c2ccccc12)C(=O)O; ξY = NC(Cc1ccc(O)cc1)C(=O)O
row,SMILES,logP
1,O=C1C=C(N2CCCCC2)CN1c1ccc(Cl)cc1,3
2,Cc1cc2ccc(=O)oc2c2ccoc12,2.39
3,Oc1ccccc1CNc1ncnc2nc[nH]c12,2.05
4,CCOC(=O)C(C)(Cc1ccccc1)S(=O)(=O)c1ccc([N+](=O)[O-])cc1 (centres undefined),3.4
5,CN1CC(O)N(C(=O)NC(C)(C)C)C1=O (centres undefined),1.38
6,COc1ccc(C2Cc3c(cccc3[N+](=O)[O-])N(CCN(C)C)C(=O)C2OC(C)=O)cc1 (centres undefined),3.7
7,COC(=O)C(C)NP(=O)(OCC1C=CC(n2cc(C)c(=O)[nH]c2=O)O1)Oc1ccc(C(C)=O)cc1 (centres undefined),0.9
8,Cc1c(C)c2cc3ccoc3cc2oc1=O,2.77
9,CCC1C(=O)N(CCN(C)C)c2cccc(C(F)(F)F)c2CC1c1ccc(OC)cc1 (centres undefined),6.3
10,O=c1nc2[nH]nc(-c3ccccc3)cc-2c(=O)[nH]1,1.56
11,O=C1N=C(N2CCOCC2)CN1Cc1ccccc1,0.5
12,Clc1ccc(N2CCN(CCn3nc4ccccc4n3)CC2)cc1,4.05
13,CC1CC2OC(=O)C(C)C2C(O)C2(C)C(=O)C=CC12 (centres undefined),0.53
14,O=C(O)CCCCCON=C(c1cncnc1)c1cccc(C(F)(F)F)c1,3.65
15,COc1cc2c(c(OC)c1OC)-c1ccc(O)c(=O)cc1C(N)CC2 (centres undefined),0.74
16,FC(F)(F)c1ccccc1CNc1[nH]cnc2ncnc1-2,3.04
17,COCCOC(=O)C1=C(C)NC(C)=C(C(=O)OCCOC)C1c1cccc2c1OCO2,2.93
18,COc1ccc(CCNCC(O)COc2ccc(-c3nc(C)c(C)[nH]3)cc2)cc1OC (centres undefined),3.22
19,COC1C(O)CC(=O)OC(C)CC=CC=CC(=O)C(C)CC(CC=O)C1OC1OC(C)C(OC2CC(C)(O)C(OC(=O)CC(C)C)C(C)O2)C(N(C)C)C1O (centres undefined),1.86
20,OCCCCCCCNc1[nH]cnc2ncnc1-2,1.73
21,CCOc1ccc(C(=O)OCCCn2ccc(=O)c(O)c2C)cc1,1.79
22,C=CCN(N=O)C(=O)N(CCC)CCCCC(NC(C)=O)C(=O)NCc1ccccc1 (centres undefined),2.11
23,CCN(CCO)CCCOc1cc2ncnc(Nc3cc(CC(=O)Nc4cccc(F)c4F)[nH]n3)c2cc1OC,3.5
24,O=C(NC1CCCCCCC1)NS(=O)(=O)c1cnccc1NC1CCCCC1,4.97
25,O=c1cc(CSc2nc3ccccc3s2)occ1O,2.08

row,SMILES,logP
1,CCCCCOc1ccc(NC(=O)OCCN2CCCCC2)cc1,5.31
2,CC1CCC(NC(=O)N2C(=O)N(C)CC2O)CC1 (centres undefined),2.41
3,Cc1nc2ccccc2c(=O)n1CC(=O)O,0.38
4,CCCSCc1cc(=O)c(O)co1,1.32
5,CCCc1nc(NCC)nc(N2CCCCC2)n1,3.34
6,Nc1nc(N)c2c(OCc3ccccc3)cccc2n1,2.82
7,CC(=O)OC(C)(C)C1CCC2(C)CCCC(C)(O)C2C1 (centres undefined),3.8
8,CC(C)C1(C)N=C(c2ncc(CO)cc2C(=O)O)NC1=O (centres undefined),-0.21
9,Cn1c(N)nc2ncc(-c3ccccc3)cc21,2.23
10,Clc1ccccc1N1CCN(CCCOn2nnc3ccccc32)CC1,4.1
11,COc1ccc2cc(C(C)C(=O)OCOC(C)=O)ccc2c1 (centres undefined),3.4
12,COC(=O)Cc1ccc(O)cc1,1.63
13,O=c1cc(-c2ccccc2)oc2ccc(Cl)cc12,3.92
14,CCCNc1ncnc2c1ncn2C1OC(CO)C(O)C1O (centres undefined),0.54
15,NCC(=O)NC(Cc1ccccc1)C(=O)NC(Cc1ccc(O)cc1)C(=O)O (stereo not drawn) (H-Gly-Phe-Tyr-OH; configuration not given here),-1.96
16,CC(=NNC(=O)c1ccncc1)c1cnccn1,1.2
17,CCOc1cc2ncnc(Nc3cccc(I)c3)c2cc1OCC,4.62
18,CC(C)(C)[N+]([O-])=Cc1ccncc1,0.4
19,C#C[C@]1(O)CC[C@H]2[C@@H]3CCC4=CC(=O)CC[C@@H]4[C@H]3C(=C)C[C@@]21CC,3.16
20,Cc1cccc(Nc2ccncc2S(=O)(=O)NC(=NC#N)NC(C)C)c1,1.86
21,CC1CCC(C)N1C(=O)Nc1ccccc1 (centres undefined),2.33
22,CN(C)CCOc1ccccc1Cl,2.87
23,O=[N+]([O-])c1nccn1COCC=CCO,-0.28
24,Cc1cc2c(C)c3ccc(=O)oc3cc2o1,2.84
25,O=C(NCC(F)(F)F)NS(=O)(=O)c1cnccc1NC1CCCCCCC1,4.22

row,SMILES,logP
1,CCC1CC2C3CCC4=CC(=O)CCC4C3CCC2(C)C1C(=O)CO (centres undefined),4.01
2,CC(C)=CCCC(C)=CCCC(=CCCC(C)=CCO)CO,4.7
3,ON=Cc1nc(-c2cccs2)no1,2.47
4,CCC(=O)Nc1ccc(OCC(O)CNC(C)C)cc1 (centres undefined),1.02
5,OCCCCCCCCCNc1[nH]cnc2ncnc1-2,2.75
6,NC(=O)c1cccc(Cc2ncccn2)c1,0.28
7,OCCCCCNc1[nH]cnc2ncnc1-2,0.72
8,CCCCC(C)N=C=S (centres undefined),3.94
9,CNC(C)Cc1ccc(F)cc1 (centres undefined),2.15
10,Cc1nc2ccccc2c(=O)n1CC(=O)NNc1ccccc1,1.34
11,NC(=O)Nc1cccc(O)c1,0.36
12,CCOC(=O)C1=C(C)NC(C)=C(C(=O)OC)C1c1cc(OC)c(OC)c(OC)c1 (centres undefined),3.39
13,CCCc1cccc(CNc2[nH]cnc3ncnc2-3)c1,3.53
14,CCCC(=NOCC)C1=C(O)CC2(CCC(C)CC2)OC1=O (centres undefined),4.07
15,COc1ccc(-c2ccsc2)cc1CNC1CCCNC1c1ccccc1 (centres undefined),4.8
16,O=C1CCC(=O)N1c1c(Cl)cccc1Cl,0.57
17,CCCCOCCCNc1ncnc2c1ncn2C1OC(CO)C(O)C1O (centres undefined),1.3
18,COC(=O)c1c(N2CCOCC2)c(-c2ccc(Cl)cc2)cn1C(=O)c1ccccc1,5.5
19,NC(Cc1c[nH]c2ccccc12)C(=O)NCC(=O)NCC(=O)O (stereo not drawn) (H-[ξW]-Gly-Gly-OH),-2.72
20,Cc1ccc(CO)c(C=NNC(=O)c2cccc(Cl)c2)c1O,3.83
21,CC(C)C(NC(=O)C(Cc1ccccc1)NC(=O)CNC(=O)CN)C(=O)NC(Cc1ccccc1)C(=O)O (centres undefined) (H-GGFVF-OH; configuration not given here),-1.4
22,COc1cccc(CCl)c1,2.68
23,NC(=O)c1cccc(Cn2ccnc2)c1,-0.01
24,C=C1C=CCC(C)=CCC1,4.17
25,NC(Cc1ccc(O)cc1)C(=O)NCC(=O)NCC(=O)O (stereo not drawn) (H-[ξY]-Gly-Gly-OH),-3.51

row,SMILES,logP
1,CON(C)C(=O)Nc1cccc(C#N)c1,1.33
2,COc1ccccc1CNc1ncnc2nc[nH]c12,2.31
3,COc1cc2ncnc(Nc3cccc(F)c3)c2cc1OC,2.96
4,CCOCCOCCOCCCCCNC(=O)NC12CC3CC(CC(C3)C1)C2,3.6
5,Cc1c(O)c(=O)ccn1CCCOC(=O)c1ccc(F)cc1,1.47
6,CC1CC(N)CN1c1cc2c(cc1F)c(=O)c(C(=O)O)cn2-c1ccc(F)cc1F (centres undefined),0.09
7,CC(C)(O)C1CCC2(C)CCCC(O)(CO)C2C1 (centres undefined),1.54
8,CON=C(C(=O)NC1C(=O)N2C(C(C)OC(=O)OC(C)C)=CCSC12)c1csc(N)n1 (centres undefined),1.37
9,CC(C)CNc1ccncc1S(=O)(=O)NC(=NC#N)NC(C)C,0.88
10,CCCCCCNc1[nH]cnc2ncnc1-2,3.16
11,CN(C)CCc1ccccc1,2.38
12,O=C(O)CCCCCON=C(c1cccc(C(F)(F)F)c1)c1ccncn1,3.55
13,CCN1CCCC1CNC(=O)c1c(OC)ccc(OC)c1O (centres undefined),2.82
14,O=C(c1ccccn1)n1c(=O)[nH]cc(F)c1=O,-0.06
15,CCOc1ccc(N)c(OCC)c1,2.19
16,CC(C)CCCCCNc1[nH]cnc2ncnc1-2,4.16
17,O=C1N=C(N2CCCC2)CN1c1ccc(Cl)cc1,2
18,CC(C)(C)[N+]([O-])=Cc1ccccc1O,1.3
19,O=C1c2ccc(O)cc2OCN1CCO[N+](=O)[O-],1.63
20,Cc1oc2nc3oc(=O)ccc3cc2c1C,1.97
21,COc1ccc(C2Cc3c(C#N)cccc3N(CCN(C)C)C(=O)C2OC(C)=O)cc1 (centres undefined),3.3
22,O=C1N=C(N2CCOCC2)CN1c1ccccc1,0.6
23,O=C1C=C(N2CCCCC2)C(=O)N1c1ccc(Cl)cc1,3.4
24,Cc1ccc(CO)c(C=NNC(=O)c2ccco2)c1O,2.67
25,CC1CCCCN1CC1CN=C(N)O1 (centres undefined),0.73

row,SMILES,logP
1,CSCCC(NC(=O)C(Cc1ccccc1)NC(=O)CNC(=O)CNC(=O)C(N)Cc1ccc(O)cc1)C(=O)O (centres undefined),-1.39
2,CC(NC(=O)C(NC(=O)C(N)Cc1ccccc1)C(C)C)C(=O)O (stereo not drawn) (H-Phe-Val-Ala-OH; configuration not given here),-2.19
3,COc1cc2ncnc(Nc3cc(F)cc(C(F)(F)F)c3)c2cc1OC,4.66
4,Cc1cc(C)cc(OCC2CN=C(N)O2)c1 (centres undefined),2.25
5,CN1C(C(=O)Nc2ccccn2)=C(O)c2sc(Cl)cc2S1(=O)=O,2.62
6,COCCOCCOCCOc1ccc(C2=NC(C)(C(=O)O)CS2)c(O)c1 (centres undefined),1.3
7,CCCCOc1cccc2nc(N)nc(N)c12,2.81
8,Nc1ncnc2c1ncn2C1OC(CCl)C(O)C1O (centres undefined),-0.06
9,CC(C)CC(NC(=O)C(N)Cc1c[nH]c2ccccc12)C(=O)NC(Cc1ccccc1)C(=O)NC(C)C(=O)NC(C)C(=O)O (centres undefined) (H-WLFAA-OH; configuration not given here),-0.32
10,COC(=O)C(C)NP(=O)(OCC1C=CC(n2cc(C)c(=O)[nH]c2=O)O1)Oc1ccc(C)cc1 (centres undefined),1.19
11,OCC1OC(n2cnc3c(NCCCCc4ccccc4)ncnc32)C(O)C1O (centres undefined),2.29
12,CCC(C)C(N)C(=O)NC(C)C(=O)NC(Cc1ccc(O)cc1)C(=O)NC(Cc1c[nH]c2ccccc12)C(=O)NCC(=O)O (centres undefined) (H-IAYWG-OH; configuration not given here),-1.47
13,O=C(NC1CCCCC1)NS(=O)(=O)c1cnccc1NC1CCCCCCC1,4.96
14,O=C(O)c1ccccc1NC(=O)c1c(O)cccc1O,3.52
15,O=C(O)Cc1ccccc1Nc1cc(Cl)cc(Cl)c1,5.07
16,CCCCC(=O)NCCCCCN(O)C(=O)CCC(=O)NCCCCCN(O)C(=O)CCC(=O)NCCCCCN(O)C(C)=O,0.88
17,Cc1nc2c3c(c(C(=O)Nc4ccccc4)cn2c1C)CCC(c1ccccc1)O3 (centres undefined),5.9
18,COC(=O)c1c(Oc2nc(OC)cc(OC)n2)cccc1C(C)=NOCC(F)(F)F,3.39
19,CC(C)CNc1ncnc2c1ncn2C1OC(CO)C(O)C1O (centres undefined),1.01
20,COc1ccccc1OCCN(C)C,1.42
21,Cc1cccc(N2CCN(CC3CN=C(N)O3)CC2)c1 (centres undefined),1.46
22,O=S(CCl)c1ccccc1 (centres undefined),1.47
23,CC(NCC(O)CON=C(C1CC1)C1CC1)c1ccccc1 (centres undefined),2.32
24,CC(C)NC(=NC#N)NS(=O)(=O)c1cnccc1NC1CCCC1,0.98
